Common to all, as to assay type: in vivo, rat (Wistar, male)
One data set relates to hepatic tissue. In words: Action on the glucidic metabolism: hepatic glycogen after 96 hours treatment. The settings on record: 18 h water diet. The text has this: The action on the glucidic metabolism was investigated by means of a test, the principle of which is as follows:
Gluco-corticoid reduce the peripheral needs of the organism in glucose, they also increase the synthesis by the liver of glycogen (neo-glycogenesis). Their action on the glucidic metabolism is thus indicated:
(1) By an increase of glycemia;
(2) by a glycogenic overload on the liver and especially by the persistence of the hepatic shock of glycogen in the food-deprived animal, and treated with a glyco-corticoid by comparison with the non-treated animal.
For this study, Wistar male rats were used; the initial weight of which was between 150 and 160 grams, distributed at random in groups of 10.
The products studied were administered by the oral route in suspension in 5 % gum arabic, under a volume of 0.5 ml. per 100 grams, the animals of the reference group receiving the same volume of vehicles under the same condition.
The treatments were carried out daily for four days, a fifth administration being given seven hours before killing the animals, which took place 96 hours after the first administration.
Immediately after killing the animals, a sample of the hepatic tissue was taken from the central lobe and weighed. Immediately afterwards, it was subjected to digestion in 30 % potassium hydroxide in a boiling water-bath for 20 minutes. The glycogen contained in the digestate was then dosed, following the technique described by R. O. Stafford, L. E. Barnes and Coll. (Proc. Soc. Exp. Med. 39/3, 371-374, 1955).
The content of glycogen in the liver samples has been expressed in grams of glycogen per 100 grams of hepatic tissue.
Table XIII which follows indicates the content of glycogen in the liver with the reference animals and the treated animals for 96 hours after a water diet of 18 hours (see procedure (e)).

For a further data set, the system named is granuloma. In words: Anti-proliferative (anti-granulomatous) activity, cotton pellet granuloma. As to conditions: rat, cotton pellet impregnated with product, 6 days. The text has this:
The experimental local anti-inflammatory activity of the compounds presented was estimated in rats by their anti-proliferative (anti-granulomatous) action, and for certain of these, by their anti-arthritic activity and their antiexudative activity.
The anti-proliferative (anti-granulomatous) activity has been brought into evidence by means of a test, the principle of which is as follows.
The introduction of a foreign body into an organism produces a set of inflammatory reactions which results, in the chromic stage, in the formation of a defence granuloma around the foreign body. The proliferation of this granuloma is eliminated or attenuated by anti-inflammatory agents.
The technique employed is very similar to that described by Winter and Porter (J. Am. Pharm. Ass. 46/9. 515) 1957 with rats.
Homogeneous groups of 6 male adult rats of the Wistar Strain were used, distributed at random and having weights comprised between 180 and 200 grams.
The implants or pellets were prepared from rolls of dental cotton; the weight of the pellets was between 35 and 40 mg.
The products to be tested were dissolved in dimethylsulphoxide (DMSO) and the solutions obtained, deposited on the pellets at a volume of 0.2 ml per pellet. The DMSO was then evaporated under high vacuum at ambient temperature, the complete elimination of the solvent being checked by weighing the pellets. "Reference" pellets, soaked with the solvent alone, were treated in the same manner.
Immediately before their introduction, the pellets were soaked with an antibiotic solution (0.1 ml. of a solution of penicillin G and streptomycin containing 200,000 of penicillin G and 0.1 gram of streptomycin sulphate per cc.).
Each animal received two pellets in the sub-cutaneous dorsal tissue on each side of the spinal column, at the costo-lumbar angle, under light anaesthesia with ether. The day of the operation and for three days after, the animals received by sub-cutaneous injection, 0.1 ml. of the antibiotic solution in the caudal region.
Six days after the introduction, the animals were killed by inhalation of chloroform and the granulomae were extracted and weighed, (fresh weight), and then the initial weights of the cotton pellets were subtracted from the total weight.
Certain non-sulphured steroids causing a large increase in protein catabolism which can influence the formation of the granuloma independently of their anti-inflammatory action, the weights of the granulomae were expressed as a percentage of the body weight (technique proposed by G. Dipasquale and A. Meli: J. Pharm. Pharmacol. (1965), 17,367-382) and the anti-proliferative effect of the various compounds as a percentage inhibition with respect to the reference granulomae. The DE50 were calculated by transferring the results on to semi-logarithmic paper.

The nature of data set [1]: Action on the hydro-mineral metabolism: sodium excretion, 96 hours treatment. As to conditions: for Sodium excreted, average ± standard error: 96 hours treatment, 5 h urine. The source says:
The action on the hydro-mineral metabolism was examined by means of a test, the principle of which is as follows:
The gluco-corticoids are not all free from mineral-corticoid effects (for example hydro-cortisone). These latter are indicated by:
A reduced renal elimination of sodium (sodium retention);
a loss of potassium (potassium leakage), these two effects reproducing the action of aldosteron.
This study has been carried out on male Wistar rats having weights between 180 and 190 grams.
The animals were distributed at random in groups of ten.
The products under study were administered by the oral route in suspension in 5 % gum arabic. The animals of the reference group received the same volume of vehicle under the same conditions.
The treatments were carried out daily for 4 days.
The renal functional exploratory test was effected […] after the first administration of the product tested.
Eighteen hours before the test, the animals were completely deprived of food and water, this being subsequently maintained up to the end of the test.
Immediately before the renal functional test, the animals received an overdose by the oral route of physiological solution equal to 5 % by volume of their body weight.
The urine passed during five hours was collected for each animal in a polyethylene tube.
The concentration of sodium was determined in each sample by flame photometry; the total quantitt excreted was then calculated as a function of the corresponding volume of urine. The values obtained for each group were then compared following the Fisher Student method with the quantity of sodium excreted by the animals of the reference group.
The results obtained with hydro-cortisone acetate and the JO 1016 in the case of a treatment lasting 96 hours following the procedure (f) are indicated in the following Table XVI.

As for `CC(=O)OCC(=O)[C@@]1(O)CC[C@H]2[C@@H]3CCC4=CC(=O)CC[C@]4(C)[C@H]3[C@@H](O)C[C@@]21C` [Hydrocortisone (acetate), Hydrocortisone acetate, reference compound], the “Glycogen in hepatic tissue” value in the data set with hepatic tissue (2 mg/kg oral) is recorded as 0.19 g/100 g; in the data set on hepatic tissue (5 mg/kg oral), 0.45 g/100 g; in the data set with hepatic tissue (10 mg/kg oral), 0.46 g/100 g; with hepatic tissue (20 mg/kg oral), 1.26 g/100 g; in the data set with hepatic tissue (50 mg/kg oral) it was 2.49 g/100 g. Further, in the data set with granuloma, the ED50 anti-proliferative activity was 1.05 mg/pellet. Also, the “Sodium excreted, average ± standard error” value in data set [1] (16 mg/kg oral) is listed as 0,371 ± 0,0827 Meq.
As to `CC(C)(C)C(=O)SCC(=O)[C@@]1(O)CC[C@H]2[C@@H]3CCC4=CC(=O)CC[C@]4(C)[C@H]3[C@@H](O)C[C@@]21C` [JO 1016, Dihydroxy-11β, 17α thio-21 dioxo-3,20 pregnene-4-21 pivalate], the results for the “Glycogen in hepatic tissue” value in the data set on hepatic tissue (25 mg/kg oral), in the data set on hepatic tissue (50 mg/kg oral) and in the data set on hepatic tissue (100 mg/kg oral) were 0.25 g/100 g, 0.39 g/100 g and 0.42 g/100 g, respectively. This compound also displayed an ED50 anti-proliferative activity with granuloma of 0.35 mg/pellet. For the same compound, the “Sodium excreted, average ± standard error” value in data set [1] (16 mg/kg oral) is 0.820 ± 0.1040 Meq; in data set [1] (32 mg/kg oral), 0.754 ± 0.0465 Meq; in data set [1] (80 mg/kg oral), 0.684 ± 0.1591 Meq; in data set [1] (160 mg/kg oral), 0.664 ± 0.0484 Meq. Further, in data set [1] (16 mg/kg oral, 96 hours, hydrocortisone acetate 0,001 < p < 0,01, JO 1016 N.S.), the “Sodium excreted, percentage of variation” value is listed as 0,4%.
